# Several values for one entry are separate records, joined by “and”; a condition that tells them apart may be missing. Identical values can stand only once. Marks after values point to notes of the source that are not given here.
# Experiments:
# [1] = tested on: Plasmodium berghei, ANKA malaria strain; test: Antimalarial efficacy of a single oral dose (7.1 mg/kg) of trioxane combined with mefloquine hydrochloride (21 mg/kg) in Plasmodium berghei-infected mice (Table 2); format: in vivo
# Procedure: (§1) Each trioxane dimer 12a-12c (0.90 mg) was dissolved in 0.11 mL of 7:3 Tween 80:ethanol and then diluted with 1.10 mL of distilled water for oral administration to 5-week-old C57BL/6J male mice (Jackson Laboratory) weighing about 21 g that were infected ip on day 0 with the Plasmodium berghei, ANKA malaria strain (2×10^7 parasitized erythrocytes) [Chen et al., 2006]. Each of five mice in a group was treated orally 24 h post-infection with a single dose of 0.20 mL (0.20 mL/1.21 mL×0.9 mg=0.15 mg) of diluted compound solution, corresponding to a dose of 7.1 mg/kg, combined with 21 mg/kg of mefloquine hydrochloride. Both determining blood parasitemia levels, as well as monitoring the duration of animal survival compared with survival time of infected animals receiving no drug, are widely accepted measures of drug efficacy in antimalarial drug development. […] The average survival time of the animals receiving no drug was 15.8 days post-infection. […] Widely accepted indications of complete cure (i.e. 100% efficacy) are survival of animals to day 30 post-infection with no detectable malaria parasites in the animal's blood at that time.
# [2] = Overt toxicity, behavioral change and body weight in treated malaria-infected mice (dimer ester study); format: in vivo; conditions: 7.1 mg/kg trioxane + 21 mg/kg mefloquine hydrochloride, mice surviving 30 days
# Procedure: as §1
# [3] = tested on: Plasmodium berghei, ANKA strain; test: Antimalarial efficacy of a single oral dose of trioxane combined with mefloquine hydrochloride in Plasmodium berghei-infected mice (Table 1); format: in vivo
# Procedure: (§2) Each trioxane 2b, 3, 4a, and 4b (0.90 mg) was dissolved in 0.11 mL of 7:3 Tween 80:ethanol and then diluted with 1.10 mL of water for oral administration to 5-week old C57BL/6J male mice (from the Jackson Laboratory) weighing about 22 g that were infected intraperitoneally on day 0 with the Plasmodium berghei, ANKA strain (2×10^7 parasitized erythrocytes). Chen et al., 2006.
# (§3) Each of five mice in a group was treated orally 24 h post-infection with a single dose of 0.20 mL (0.20 mL/1.21 mL×0.9 mg=0.15 mg) of diluted compound solution, corresponding to a dose of 6.8 mg/kg, combined with 20 mg/kg of mefloquine hydrochloride. Determining blood parasitemia levels, as well as monitoring the duration of animal survival compared to survival time of animals receiving no drug, are both widely accepted as measures of a drug's efficacy in antimalarial drug development. […] Animals receiving no drug died on days 6-7 post-infection. A widely accepted yardstick of cure (i.e., 100% efficacy) is survival of animals to day 30 post-infection, with no detectable malaria parasites in the animal's blood at that time.
# Average survival results are summarized in Table 1, including single oral doses of 13 mg/kg of trioxane combined with 13 mg/kg of mefloquine hydrochloride. The clinically used monomeric water-soluble trioxane drug 2c and the synthetic trioxolane peroxide drug development candidate OZ277 (9) maleate are included as monotherapy reference compounds.
# [4] = tested on: 60 cancer cell lines (leukemia, non-small-cell lung, colon, CNS, melanoma, ovarian, renal, prostate, breast); conditions: cited from earlier work
# P388 leukemia = conditions: NCI Report on NSC 369397, 25 Oct. 1983; cited from earlier work
# [5] = tested on: Plasmodium berghei, ANKA strain; test: Antimalarial efficacy of a single oral dose of trioxane (8 mg/kg) combined with mefloquine hydrochloride (24 mg/kg) in Plasmodium berghei-infected mice (Table 3); format: in vivo; conditions: single oral dose 8 mg/kg trioxane + 24 mg/kg mefloquine hydrochloride; for Average Survival (days) After Infection: 3 mice, experiment stopped on day 57
# Procedure: (§4) Each trioxane silylamide 14a, 14b, and 16 (0.90 mg) was dissolved in 0.11 mL of 7:3 Tween 80:ethanol and then diluted with 1.10 mL of water for oral administration to 5-week old C57BU6J male mice (from the Jackson Laboratory) weighing 18-19 grams that were infected intraperitoneally on day 0 with the Plasmodium berghei, ANKA strain (2×10^7 parasitized erythrocytes). Woodard et al., 2009. Each of 3 mice in a group was treated orally 24 hours post-infection with a single dose of 0.20 mL (0.20 mL/1.21 mL×0.9 mg=0.15 mg) of diluted compound solution, corresponding to a dose of 8 mg/kg, combined with 24 mg/kg of mefloquine hydrochloride. Determining blood parasitemia levels, as well as monitoring the duration of animal survival compared to survival time of animals receiving no drug, are both widely accepted as measures of a drug's efficacy in antimalarial drug development. […] Animals infected but receiving no drug died on an average of 15 days post-infection. A widely accepted yardstick of cure (i.e., 100% efficacy) is survival of animals to at least day 30 post-infection, with no detectable malaria parasites in the animal's blood at that time.
# Plasmodium berghei = conditions: monotherapy, single oral dose 30 mg/kg; data from Vennerstrom et al.; cited from earlier work
# [6] = tested on: Plasmodium berghei, ANKA strain; test: Antimalarial efficacy of a single oral dose of trioxane (8 mg/kg) combined with mefloquine hydrochloride (24 mg/kg) in Plasmodium berghei-infected mice (Table 3); format: in vivo; conditions: mefloquine hydrochloride alone, single oral dose 22 mg/kg
# [7] = Overt toxicity, behavioral change and body weight in treated malaria-infected mice (silylamide study); format: in vivo; conditions: malaria-infected animals cured by trioxane plus mefloquine hydrochloride
# Procedure: as §4
# [8] = Overt toxicity and behavioral change in treated malaria-infected mice (fluoroaryl amide study); format: in vivo; conditions: malaria-infected animals cured by trioxane plus mefloquine hydrochloride
# Procedure: as §2, §3
# [9] = Thermal stability in the absence of solvent (1H NMR); format: physicochemical; conditions: neat solid
# From the text: Referring now to Scheme 3, C-10 acetate 2d was converted into C-10-allyl derivative 7 and then, via hydroboration followed by oxidation, into monomeric trioxane carboxylic acid 8. Jung et al, 2003. Monomeric trioxane carboxylic acid 8 can be transformed in one step directly into a diverse library of monomeric trioxane amides. Jung et al, 2003. For example, one-step amidation of carboxylic acid 8 produced trioxane fluoroaryl amide 4a, a monomeric version of dimer fluoroaryl amide 3 (Scheme 3). In the same way, monomer trioxane fluoroanilide 4b was prepared directly and in good yield from carboxylic acid 8 (Scheme 3). The overall yield of 4b is approximately 48% from natural trioxane 1, and scale up to multigram or even kilogram amounts is expected to be straightforward. […]
# Referring once again to Scheme 4, dihydroartemisinin acetate 2d, prepared from natural trioxane 1 in near quantitative yield, Posner et al., 2003, underwent tin-promoted dimerization, Posner et al., 2003, with bis-allylic silane 10, Bigot and Breit, 2008, to form pure C-10b, C10b-trioxane dimer alcohol 11 in 59% yield. […] Each of benzoate esters 12a-12c in the absence of solvent is thermally stable at the elevated temperature of 60° C. for at least 1 week and at 70° C. for at least 24 h, with less than 5% decomposition detected by ^1H NMR spectroscopy. […]
# [10] = single oral dose 6.8 mg/kg trioxane + 20 mg/kg mefloquine hydrochloride
# [11] = single oral dose 6.8 mg/kg trioxane + 20 mg/kg mefloquine hydrochloride, 24 h post-infection, C57BL/6J mice
# [12] = single oral dose 13 mg/kg trioxane + 13 mg/kg mefloquine hydrochloride
# [13] = mefloquine hydrochloride alone, single oral dose 21 mg/kg
# [14] = mefloquine hydrochloride alone, single oral dose 20 mg/kg
structure (smiles),measurement,setting,value
"CO[C@H]1O[C@@H]2O[C@@]3(C)CC[C@H]4[C@H](C)CC[C@@H]([C@H]1C)[C@@]24OO3 [2b, artemether, reference compound]",survival after infection (all mice),[1]; 7.1 mg/kg trioxane + 21 mg/kg mefloquine hydrochloride,30 days
same,No. of mice parasite free (day 30),"[1]; single oral dose 7.1 mg/kg trioxane + 21 mg/kg mefloquine hydrochloride, five mice",4
same,% parasitemia on day 30%,"[1]; single oral dose 7.1 mg/kg trioxane + 21 mg/kg mefloquine hydrochloride, number of parasitemic mice in brackets",1.6 (1 mouse) %
same,weight gain,[2],10-20%
same,% Suppression of Parasitemia (on day 3 post-infection),[3]; [10],99.8%
same,Average Survival (days) After Infection,[3]; [11],"19.8 days and 19.8 (16, 17, days"
same,% Suppression of Parasitemia (on day 3 post-infection),[3]; [12],99.7%
same,Average Survival (days) After Infection,[3]; [12],"19.6 (16, 17, days"
"C[C@H]1[C@@H](CC(C[C@H]2O[C@@H]3O[C@]4(C)CC[C@H]5[C@H](C)CC[C@@H]([C@H]2C)[C@@]35OO4)C(=O)NCc2ccc(F)cc2)O[C@@H]2O[C@]3(C)CC[C@H]4[C@H](C)CC[C@@H]1[C@@]24OO3 (stereo partly shown) [compound 3, Trioxane Dimer Fluoroaryl Amide]",% Suppression of Parasitemia (on day 3 post-infection),[3]; [10],99.5%
same,Average Survival (days) After Infection,[3]; [11],"27.4 (22, 25, days"
same,% Suppression of Parasitemia (on day 3 post-infection),[3]; [12],99.9%
same,Average Survival (days) After Infection,[3]; [12],"24.6 (17, 21, days"
C[C@@H]1CC[C@H]2[C@@H](C)C(=O)O[C@@H]3O[C@@]4(C)CC[C@@H]1[C@]32OO4 [artemisinin],anticancer activity in 60 cell line panel,[4],modest anticancer activity
same,activity against P388 leukemia,P388 leukemia,inactive
C[C@H]1[C@@H](CCC(=O)NCCC[Si](C)(C)C)O[C@@H]2O[C@]3(C)CC[C@H]4[C@H](C)CC[C@@H]1[C@@]24OO3 [14b],% Suppression of Parasitemia (on day 3 post-infection),[5],>99.5%
same,parasites in the blood of the surviving mice on day 57,[5],^aOne mouse died on day 17; the other two mice in this group showed no parasitemia on day 57.
same,Average Survival (days) After Infection,[5],44^a days
CC(C)(N)CNC(=O)C[C@H]1CC[C@]2(CC1)OO[C@]1(O2)C2CC3CC(C2)CC1C3 [compound 9],% Suppression of Parasitemia (on day 3 post-infection),Plasmodium berghei,99.95^b %
"Cl.OC(c1cc(C(F)(F)F)nc2c(C(F)(F)F)cccc12)C1CCCCN1 (stereo not shown) [Mefloquine, mefloquine hydrochloride, reference compound]",No. of mice parasite free (day 30),[1]; [13],1
same,suppression of parasitemia (day 3),[1]; [13],91.5%
same,% parasitemia on day 30%,"[1]; mefloquine hydrochloride alone, single oral dose 21 mg/kg, average of 4 mice, hydrochloride, 21 mg/kg",25 (4 mice) %
same,% parasitemia on day 30%,"[1]; mefloquine hydrochloride alone, single oral dose 21 mg/kg, average of 4 mice, listed as mefloquine hydrochloride, hydrochloride, 21 mg/kg",25%
same,% Suppression of Parasitemia (on day 3 post-infection),[3]; [14],99.6%
same,Average Survival (days) After Infection,[3]; [14],17.6 days
same,cure of malaria-infected mice,[6],not curative
C[C@H]1[C@@H](CC(C[C@H]2O[C@@H]3O[C@]4(C)CC[C@H]5[C@H](C)CC[C@@H]([C@H]2C)[C@@]35OO4)C(=O)NC[Si](C)(C)C)O[C@@H]2O[C@]3(C)CC[C@H]4[C@H](C)CC[C@@H]1[C@@]24OO3 (stereo partly shown) [compound 16],overt toxicity or behavioral change attributable to trioxane drug administration,[7],Neither overt toxicity nor behavioral change
same,% Suppression of Parasitemia (on day 3 post-infection),[5],>99.5%
same,parasites in the blood of the surviving mice on day 57,[5],no parasites were detected
same,Average Survival (days) After Infection,[5],>57 days
C[C@H]1[C@@H](CCC(=O)NC[Si](C)(C)C)O[C@@H]2O[C@]3(C)CC[C@H]4[C@H](C)CC[C@@H]1[C@@]24OO3 [14a],overt toxicity or behavioral change attributable to trioxane drug administration,[7],Neither overt toxicity nor behavioral change
same,% Suppression of Parasitemia (on day 3 post-infection),[5],>99.5%
same,parasites in the blood of the surviving mice on day 57,[5],no parasites were detected
same,Average Survival (days) After Infection,[5],>57 days
"C[C@H]1[C@@H](CCC(=O)Nc2ccc(F)cc2)O[C@@H]2O[C@]3(C)CC[C@H]4[C@H](C)CC[C@@H]1[C@@]24OO3 [4b, Trioxane Monomer Fluoroanilide]",overt toxicity or behavioral change attributable to trioxane drug administration,[8],Neither overt toxicity nor behavioral change
same,stable in the absence of solvent at 60° C.,[9]; 60° C.,at least 7 days
same,stable in the absence of solvent at 70° C.,[9]; 70° C.,at least 1 day
same,"blood parasitemia of the one mouse not cured, day 30",[3]; 6.8 mg/kg trioxane + 20 mg/kg mefloquine hydrochloride,4%
same,mice completely cured (no parasites in their blood) on day 30 post-infection,"[3]; 6.8 mg/kg trioxane + 20 mg/kg mefloquine hydrochloride, five mice",80%
same,"blood parasitemia of the one mouse not cured, day 30",[3]; 13 mg/kg trioxane + 13 mg/kg mefloquine hydrochloride,2%
same,mice cured (day 30),"[3]; 13 mg/kg trioxane + 13 mg/kg mefloquine hydrochloride, five mice",four
same,% Suppression of Parasitemia (on day 3 post-infection),"[3]; monotherapy, single oral dose 72 mg/kg trioxane, no mefloquine",99.0%
same,Average Survival (days) After Infection,"[3]; monotherapy, single oral dose 72 mg/kg trioxane, no mefloquine, 72 mg/kg","24.4 days and 24.4 (21, 23, days"
same,"extended survival time after reinfection, longer than average survival of a newly infected control group",[3]; reinfection of the four cured mice on day 32 after the original infection,approximately four
same,% Suppression of Parasitemia (on day 3 post-infection),[3]; [10],99.0%
same,% Suppression of Parasitemia (on day 3 post-infection),[3]; [12],99.6%
same,Average Survival (days) After Infection,[3]; [12],30 days
